Laboratory results as given in paper PMC8151276, “An Integrated Approach toward NanoBRET Tracers for Analysis of GPCR Ligand Engagement” (Molecules, 2021).

Biological target: T1, ADRB3 (Homo sapiens, UniProt P13945)
T1 construct: purchased Promega (in-house HiBiT-GPCR construct library, NanoBRET)
Assay: NanoBRET screen HiBiT-ADRB3 in HEK293
Format: binding
Protocol: Each tracer candidate was screened across the entire library of HiBiT-GPCR constructs using NanoBRET as the detection modality. As depicted in Figure 4A, the specificity of interactions was evaluated through decrease in BRET due to competitive displacement of a bound tracer by excess parental compound. Each tracer was analyzed for binding to each HiBiT-GPCR fusion in the absence and in the presence of competing parental compound. Briefly, HEK293 cells were transfected with HiBiT-GPCR constructs diluted into promoterless DNA to reduce expression and maximize translocation to the cell surface. Each tracer candidate was then screened at concentrations of 1 μM and 0.1 μM across cells expressing these fusions. Cells were treated for 1.5 h with tracer either alone or in the presence of 20 μM competing parental compound (i.e., control). BRET was measured upon addition of purified LgBiT and subsequent complementation with HiBiT genetically fused to a GPCR. The specificity of interactions was assessed through a decrease in BRET signal due to competitive displacement of the bound tracer. To further gauge the robustness of these interactions, the fold response over the control (i.e., BRETtracer/BRETcontrol) was calculated. We chose a 1.5-fold response, which translates to ≥7-fold signal over noise as the minimal threshold required to score an interaction as positive.
HiBiT-GPCR DNA constructs were diluted in 10 mM Tris pH 8 to a final concentration of 0.01 μg/μL, arrayed in 96-well plates and stored at −20 °C. For transfection, HEK293 cells were suspended in Opti-MEM (without phenol red) supplemented with 2% fetal bovine serum (Seradigm) and 100 units/mL penicillin–streptomycin (Gibco) at a final concentration of 220,000 cells/mL and dispensed into white 96-well plates at 90 μL/well. Subsequent transfections and screens were carried using an Agilent Bravo Automated Liquid Handling Platform. First, the 96-well HiBiT DNA arrays were diluted 25-fold in Opti-MEM (without serum or phenol red) to a final concentration of 0.0004 μg/μL and 20 μL of the diluted DNAs were transferred into new 96-well plates. Next, promoterless carrier DNA (1 μg/μL) was diluted 25-fold (0.04 μg/μL) and then dispensed into the diluted arrays at 20 μL/well. Following brief mixing, Viafect transfection reagent (Promega) diluted 16-fold into Opti-MEM was dispensed into the plates at 40 μL/well. After mixing by pipetting, plates were incubated for 10 min on the pipetting station deck. The DNA-transfection reagent complexes were then added to plates containing cells. To facilitate the screen, 10 μL of DNA-transfection reagent complexes were added in duplicates to the top 4 and bottom 4 rows, resulting in two identical 48-well arrays per plate. Plates with transfected cells were incubated for 18–20 h at 37 °C/5% CO2. A screen of each tracer across the entire library using two different concentrations requires duplicate plates of transfected cells. Depending on the number of tracers being screened, transfections can be scaled up using the same ratios. The next day, for each tracer, four 20× screening solutions in tracer dilution buffer (Promega) were prepared: two duplicates at final concentration of 20 μM and two duplicates at a final concentration of 2 μM. […] The four resulting solutions were diluted 4-fold in Opti-MEM without serum or phenol red to generate 5× solutions (5 µM and 0.5 µM tracer +/− 100 μM competing compound). To screen the library, a BioTek MultiFlo FX liquid dispenser was used to dispense 22.5 µL of tracer solution to the top 4 rows and 22.5 µL tracer + competing compound solution to the 4 bottom rows. Plates were briefly mixed on an orbital shaker and incubated for 1.5 h at room temperature. […] Plates were briefly mixed on an orbital shaker and incubated for 15 min to allow complementation.

T1 sequence (P13945 whole entry): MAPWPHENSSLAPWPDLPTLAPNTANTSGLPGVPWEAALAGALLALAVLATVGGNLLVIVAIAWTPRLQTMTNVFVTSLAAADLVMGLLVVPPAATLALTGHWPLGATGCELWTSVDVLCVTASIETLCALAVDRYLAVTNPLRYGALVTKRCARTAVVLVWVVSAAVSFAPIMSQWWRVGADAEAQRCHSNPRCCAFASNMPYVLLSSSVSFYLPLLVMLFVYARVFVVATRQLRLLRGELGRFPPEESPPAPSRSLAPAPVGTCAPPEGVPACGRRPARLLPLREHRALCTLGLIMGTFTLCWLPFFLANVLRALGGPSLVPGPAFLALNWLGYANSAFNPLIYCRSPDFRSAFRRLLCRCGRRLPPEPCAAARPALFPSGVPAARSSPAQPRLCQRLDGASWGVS

Compound	NanoBRET Fold Response (ADRB3, tracer 0.1μM)	NanoBRET Fold Response (ADRB3, tracer 1μM)	other results
CCOC(=O)c1cc(C#N)c(N2CCC(C(=O)NS(=O)(=O)Cc3ccccc3/C=C/C(=O)NCCNC(=O)CCc3ccc4n3[B-](F)(F)[N+]3=C(c5ccc[nH]5)C=CC3=C4)CC2)nc1C [AZD1283-1-NB590]	–	–	NanoBRET Fold Response (ADRB3, 0.1μM): 1.09; NanoBRET Fold Response (ADRB3, 1μM): 1.04
N#CN/C(=N\CCNC(=O)c1ccc(N)cc1)NCCCOc1cccc(CN2CCCCC2)c1 [Aminopotentidine (unmodified)]	–	–	NanoBRET Fold Response (ADRB3, other tracers/Aminopotentidine (unmodified), 0.1μM): 1.02; NanoBRET Fold Response (ADRB3, other tracers/Aminopotentidine (unmodified), 1μM): 1.10
N#CN=C(NCCCOc1cccc(CN2CCCCC2)c1)NCCNC(=O)CCOCCOCCOCCOCCNC(=O)CCc1ccc2n1[B-](F)(F)[N+]1=C(c3ccc[nH]3)C=CC1=C2 [Aminopotentidine-2-NB590]	1.00	1.01	–
CN(C)CCC=C1c2ccccc2CCc2ccc(C(=O)NCCNC(=O)CCOCCOCCOCCOCCNC(=O)CCc3ccc4n3[B-](F)(F)[N+]3=C(c5ccc[nH]5)C=CC3=C4)cc21 [Amitriptyline-a-2-NB590]	–	–	NanoBRET Fold Response (tracer at 0.1μM): 0.95; NanoBRET Fold Response (tracer at 1μM): 0.99
CN(C)CCC=C1c2ccccc2CCc2ccc(C(=O)NCCNC(=O)CCOCCOCCOCCOCCNC(=O)CCc3ccc4n3[B-](F)(F)[N+]3=C(c5ccc[nH]5)C=CC3=C4)cc21 [Amitriptyline-b-2-NB590]	–	–	NanoBRET Fold Response (tracer at 0.1μM, listed as amitriptyline-b-2-NB590): 1.15; NanoBRET Fold Response (tracer at 1μM, listed as amitriptyline-b-2-NB590): 1.02
CN(CCC=C1c2ccccc2CCc2ccccc21)C(=O)CCOCCOCCOCCOCCNC(=O)CCc1ccc2n1[B-](F)(F)[N+]1=C(c3ccc[nH]3)C=CC1=C2 [Amitriptyline-e-2-NB590]	–	–	NanoBRET Fold Response (tracer at 1μM): 1.01
COc1ccc2c(n1)c(CCNC(C)=O)cn2CCNC(=O)CCc1ccc2n1[B-](F)(F)[N+]1=C(c3ccc[nH]3)C=CC1=C2 [Azamelatonin-1-NB590]	–	–	NanoBRET Fold Response (0.1μM tracer): 1.01; NanoBRET Fold Response (1μM tracer): 1.06
COc1ccc2[nH]c(-c3ccc(CNC(=O)CCOCCOCCOCCOCCNC(=O)CCc4ccc5n4[B-](F)(F)[N+]4=C(c6ccc[nH]6)C=CC4=C5)cc3)c(CCNC(C)=O)c2n1 [AzomelatoninICO9-2-NB590]	–	–	NanoBRET Fold Response (0.1μM tracer): 1.00; NanoBRET Fold Response (1μM tracer): 1.11
O=C(CCOCCOCCOCCOCCNC(=O)CCc1ccc2n1[B-](F)(F)[N+]1=C(c3ccc[nH]3)C=CC1=C2)NCCCN1CCN(C2=Nc3cc(Cl)ccc3Nc3ccccc32)CC1 [Clozapine-a-2-NB590]	–	–	NanoBRET Fold Response (ADRB3, 0.1μM tracer): 0.97; NanoBRET Fold Response (ADRB3, 1μM tracer): 0.99
CN1CCN(C2=Nc3cc(Cl)ccc3Nc3ccc(CNC(=O)CCOCCOCCOCCOCCNC(=O)CCc4ccc5n4[B-](F)(F)[N+]4=C(c6ccc[nH]6)C=CC4=C5)cc32)CC1 [Clozapine-b-2-NB590]	–	–	NanoBRET Fold Response (ADRB3, 0.1μM tracer): 1.01; NanoBRET Fold Response (ADRB3, 1μM tracer): 0.98
CN1CCN(C2=Nc3cc(Cl)ccc3N(CC(=O)NCCOCCOCCOCCOCCNC(=O)CCc3ccc4n3[B-](F)(F)[N+]3=C(c5ccc[nH]5)C=CC3=C4)c3ccccc32)CC1 [Clozapine-c-2-NB590]	–	–	NanoBRET Fold Response (ADRB3, 0.1μM tracer): 0.98; NanoBRET Fold Response (ADRB3, 1μM tracer): 0.96
O=C(CCOCCOCCOCCOCCNC(=O)CCc1ccc2n1[B-](F)(F)[N+]1=C(c3ccc[nH]3)C=CC1=C2)NCCCN1CCN(C2=Nc3ccccc3Oc3ccc(Cl)cc32)CC1 [Loxapine-a-2-NB590]	1.01	0.93	–
COc1ccccc1N1CCN(CCCCN2C(=O)c3ccc(CNC(=O)CCOCCOCCOCCOCCNC(=O)CCc4ccc5n4[B-](F)(F)[N+]4=C(c6ccc[nH]6)C=CC4=C5)cc3C2=O)CC1 [NAN-190-2-NB590]	0.98	–	–
COc1ccccc1N1CCN(CCCCN2C(=O)c3ccc(CNC(=O)CCOCCNC(=O)c4ccc(CNC(=O)CCc5ccc6n5[B-](F)(F)[N+]5=C(c7ccc[nH]7)C=CC5=C6)cc4)cc3C2=O)CC1 [NAN-190-3-NB590]	1.03	0.92	–
O=C(CCc1ccc2n1[B-](F)(F)[N+]1=C(c3ccc[nH]3)C=CC1=C2)NCc1ccc(C(=O)NCCOCCC(=O)N[C@@H]2CC[C@@]3(O)[C@H]4Cc5ccc(O)c6c5[C@@]3(CCN4CC3CC3)[C@H]2O6)cc1 [Naltrexone-3-NB590]	0.99	1.02	–
Cc1cc2c(s1)Nc1ccccc1N=C2N1CCN(CCCNC(=O)CCOCCOCCOCCOCCNC(=O)CCc2ccc3n2[B-](F)(F)[N+]2=C(c4ccc[nH]4)C=CC2=C3)CC1 [Olanzapine-a-2-NB590]	1.05	0.89	–
O=C(CCc1ccc2n1[B-](F)(F)[N+]1=C(c3ccc[nH]3)C=CC1=C2)NCc1ccc(C(=O)NCCOCCOCCNCC(O)COc2cccc3ccccc23)cc1 (stereo not drawn) [Propranolol-3-NB590]	–	–	NanoBRET Fold Response (ADRB3, 0.1μM): 1.47; NanoBRET Fold Response (ADRB3, 1μM): 1.17
O=C(CCc1ccc2n1[B-](F)(F)[N+]1=C(c3ccc[nH]3)C=CC1=C2)NCCOCCOCCNC(=O)OCCOCCN1CCN(C2=Nc3ccccc3Sc3ccccc32)CC1 [Quetiapine-a-2-NB590]	1.08	0.99	–
Cc1nc2n(c(=O)c1CCN1CCC(c3noc4cc(F)ccc34)CC1)CCCC2OC(=O)NCCOCCOCCOCCOCCNC(=O)CCc1ccc2n1[B-](F)(F)[N+]1=C(c3ccc[nH]3)C=CC1=C2 (stereo not drawn) [Risperidone-2-NB590]	0.98	1.01	–
CC(C)N(CC[C@H](c1ccccc1)c1cc(CCNC(=O)CCOCCOCCOCCOCCNC(=O)CCc2ccc3n2[B-](F)(F)[N+]2=C(c4ccc[nH]4)C=CC2=C3)ccc1O)C(C)C [Tolterodine-2-NB590]	0.97	0.97	–
CC(C)N(CC[C@H](c1ccccc1)c1cc(CCNC(=O)c2ccc(CNC(=O)CCc3ccc4n3[B-](F)(F)[N+]3=C(c5ccc[nH]5)C=CC3=C4)cc2)ccc1O)C(C)C [Tolterodine-BZ-NB590]	0.93	0.99	–
CCCn1c(=O)c2[nH]c(-c3ccc(OCC(=O)NCCNC(=O)CCOCCNC(=O)c4ccc(CNC(=O)CCc5ccc6n5[B-](F)(F)[N+]5=C(c7ccc[nH]7)C=CC5=C6)cc4)cc3)nc2n(CCC)c1=O [XAC-3-NB590]	1.11	1.05	–
